Results: the supplement of paper PMC10307832

Legend:
Experiment in all cases: relative viability (nuclei count vs DMSO), 5 days (fraction); higher = more cells survive
RAF265 + Crizotinib = compound: Cn1c(Nc2ccc(C(F)(F)F)cc2)nc2cc(Oc3ccnc(-c4ncc(C(F)(F)F)[nH]4)c3)ccc21 [RAF265] + C[C@@H](Oc1cc(-c2cnn(C3CCNCC3)c2)cnc1N)c1c(Cl)ccc(F)c1Cl [Crizotinib] (partner 1 µM)
How it was run: (§1)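 Dosing by pin tool came one day after lung cancer cell lines were seeded in 1536-well plates, using either one drug or a fixed anchor-drug dose plus five library-drug doses (not always all listed) in √10 steps. After 5 days, nuclei were counted on 4× images. Relative viability is treated-well nuclei count divided by vehicle-well nuclei count, and values are medians of duplicate plates.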

RAF265 + Trametinib = compound: Cn1c(Nc2ccc(C(F)(F)F)cc2)nc2cc(Oc3ccnc(-c4ncc(C(F)(F)F)[nH]4)c3)ccc21 [RAF265] + CC(=O)Nc1cccc(-n2c(=O)n(C3CC3)c(=O)c3c(Nc4ccc(I)cc4F)n(C)c(=O)c(C)c32)c1 [Trametinib] (partner 0.02 µM)
How it was run: as §1

IPA-3 + Lapatinib = compound: C1=CC=C2C(=C1)C=CC(=C2SSC3=C(C=CC4=CC=CC=C43)O)O [IPA-3] + CS(=O)(=O)CCNCc1ccc(-c2ccc3ncnc(Nc4ccc(OCc5cccc(F)c5)c(Cl)c4)c3c2)o1 [Lapatinib] (partner 2 µM)
How it was run: as §1

RAF265 + Palbociclib = compound: Cn1c(Nc2ccc(C(F)(F)F)cc2)nc2cc(Oc3ccnc(-c4ncc(C(F)(F)F)[nH]4)c3)ccc21 [RAF265] + CC(=O)c1c(C)c2cnc(Nc3ccc(N4CCNCC4)cn3)nc2n(C2CCCC2)c1=O [Palbociclib] (partner 0.5 µM)
How it was run: as §1

Row | Cell Line | relative viability (RAF265 + Crizotinib; first compound 0.01 µM) | relative viability (RAF265 + Crizotinib; first compound 0.03162 µM) | relative viability (RAF265 + Crizotinib; first compound 0.1 µM) | relative viability (RAF265 + Crizotinib; first compound 0.3162 µM) | relative viability (RAF265 + Crizotinib; first compound 1 µM) | relative viability (RAF265 + Trametinib; first compound 0.01 µM) | relative viability (RAF265 + Trametinib; first compound 0.03162 µM) | relative viability (RAF265 + Trametinib; first compound 0.1 µM) | relative viability (RAF265 + Trametinib; first compound 0.3162 µM) | relative viability (RAF265 + Trametinib; first compound 1 µM) | relative viability (IPA-3 + Lapatinib; first compound 0.2 µM) | relative viability (IPA-3 + Lapatinib; first compound 0.6325 µM) | relative viability (IPA-3 + Lapatinib; first compound 2 µM) | relative viability (IPA-3 + Lapatinib; first compound 6.325 µM) | relative viability (IPA-3 + Lapatinib; first compound 20 µM) | relative viability (RAF265 + Palbociclib; first compound 0.01 µM) | relative viability (RAF265 + Palbociclib; first compound 0.03162 µM) | relative viability (RAF265 + Palbociclib; first compound 0.1 µM) | relative viability (RAF265 + Palbociclib; first compound 0.3162 µM) | relative viability (RAF265 + Palbociclib; first compound 1 µM)
1 | HCC-15 | 0.83 | 0.817 | 0.836 | 0.566 | 0.499 | 0.346 | 0.403 | 0.379 | 0.338 | 0.21 | 1.08 | 0.77 | 0.806 | 0.868 | 0.958 | 0.71 | 0.825 | 0.672 | 0.537 | 0.27
2 | NCI-H727 | 0.8 | 0.727 | 0.967 | 0.598 | 0.283 | 0.403 | 0.371 | 0.392 | 0.334 | 0.317 | 1.15 | 0.832 | 0.915 | 0.952 | 0.796 | 0.684 | 0.626 | 0.692 | 0.611 | 0.602
3 | HOP-62 | 0.972 |  | 0.714 | 0.772 | 0.629 | 0.468 | 0.404 | 0.406 | 0.379 | 0.218 | 1.2 | 0.935 | 0.918 | 1.13 | 1.16 | 0.416 | 0.457 | 0.423 | 0.392 | 0.216
4 | NCI-H3122 | 0.305 | 0.287 | 0.305 | 0.251 | 0.283 | 0.26 | 0.203 | 0.21 | 0.208 | 0.173 | 1.02 | 0.996 | 0.993 | 1.09 | 0.946 | 0.18 | 0.216 | 0.19 | 0.198 | 0.19
5 | NCI-H647 | 1.07 | 0.938 | 0.873 | 0.541 | 0.689 | 0.46 | 0.451 | 0.277 | 0.222 | 0.19 | 1.71 | 1.02 | 0.876 | 0.335 | 0.0724 | 0.335 | 0.401 | 0.196 | 0.228 | 0.218
6 | NCI-H650 | 0.886 | 0.722 | 0.684 | 0.808 | 0.317 | 1.05 | 0.972 | 1.05 | 0.569 | 0.328 | 1.22 | 0.955 | 0.802 | 0.857 | 1.3 | 0.306 | 0.345 | 0.303 | 0.232 | 0.206
7 | EKVX | 0.909 | 0.625 | 0.998 | 0.805 | 0.773 | 0.387 | 0.385 | 0.417 | 0.217 | 0.277 | 0.198 | 0.201 | 0.204 | 0.225 | 0.217 | 0.429 | 0.405 | 0.416 | 0.249 | 0.276
8 | NCI-H460 | 0.972 | 0.904 | 0.743 |  | 0.881 | 0.238 | 0.23 | 0.133 | 0.156 | 0.0601 |  | 0.807 | 1.1 | 0.889 | 1.19 | 0.203 | 0.203 | 0.171 | 0.2 | 0.0711
9 | LCLC-97TM1 | 0.355 | 0.274 | 0.293 | 0.181 | 0.121 | 0.225 | 0.151 | 0.149 | 0.16 | 0.0901 | 1.14 | 1.03 | 1.13 | 0.938 | 0.937 | 0.233 | 0.245 | 0.158 | 0.208 | 0.0796
10 | COR-L23 | 0.799 | 0.75 | 0.638 | 0.465 | 0.424 | 0.684 | 0.444 | 0.331 | 0.247 | 0.207 | 1.09 | 0.985 | 1.01 | 1.02 | 0.988 | 0.295 | 0.233 | 0.235 | 0.184 | 0.148
11 | NCI-H1355 | 1.11 | 1 | 1.02 | 0.766 | 0.337 | 0.438 | 0.355 | 0.383 | 0.283 | 0.206 | 1.11 | 0.968 | 0.941 | 0.966 | 1.01 | 0.449 | 0.364 | 0.328 | 0.248 | 0.181
12 | NCI-H1666 | 1.11 | 1.08 | 1.06 | 0.971 | 0.651 | 0.89 | 0.852 | 0.784 | 0.839 | 0.656 | 0.77 | 0.673 | 0.674 | 0.786 | 0.66 | 0.612 | 0.577 | 0.595 | 0.663 | 0.585
13 | EPLC-272H | 0.765 | 0.868 | 1.32 | 0.472 | 0.434 | 0.28 | 0.287 | 0.3 | 0.204 | 0.205 | 1.01 | 1.01 | 0.915 | 0.881 | 1.04 | 0.334 | 0.291 | 0.352 | 0.287 | 0.269
14 | NCI-H1651 | 0.829 | 0.912 | 0.904 | 0.88 | 0.81 | 0.797 | 0.808 | 0.795 | 0.796 | 0.734 | 1.18 |  | 0.863 | 0.852 | 0.931 | 0.508 | 0.517 | 0.504 | 0.479 | 0.47
